Drawing on patent US11612606B2, “8-aminoisoquinoline compounds and uses thereof” (priority 2018, dated 2023), this text covers Ki for 24 molecules.

Usually Ki stands for the dissociation constant of the complex between target and ligand, obtained from inhibition or displacement.

In this assay the target is HPK full length, T165E S171E (Homo sapiens (Human), UniProt Q92918, S171E/T165E). As to the kind of experiment: HPK1-FL HTRF enzymatic assay ("HTRF"). The format is biochemical. Conditions: ATP 1 mM. An outline of the steps: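 HTRF detection of phosphorylated biotin-SLP-76 used Eu-anti-pSLP76 antibody and SA-XL665, read after 60 min. The kinase reaction ran 60 min at […], following a 30-min compound preincubation with the full-length enzyme.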
HPK full length, T165E S171E, sequence (Q92918 whole entry T165E/S171E, looked up): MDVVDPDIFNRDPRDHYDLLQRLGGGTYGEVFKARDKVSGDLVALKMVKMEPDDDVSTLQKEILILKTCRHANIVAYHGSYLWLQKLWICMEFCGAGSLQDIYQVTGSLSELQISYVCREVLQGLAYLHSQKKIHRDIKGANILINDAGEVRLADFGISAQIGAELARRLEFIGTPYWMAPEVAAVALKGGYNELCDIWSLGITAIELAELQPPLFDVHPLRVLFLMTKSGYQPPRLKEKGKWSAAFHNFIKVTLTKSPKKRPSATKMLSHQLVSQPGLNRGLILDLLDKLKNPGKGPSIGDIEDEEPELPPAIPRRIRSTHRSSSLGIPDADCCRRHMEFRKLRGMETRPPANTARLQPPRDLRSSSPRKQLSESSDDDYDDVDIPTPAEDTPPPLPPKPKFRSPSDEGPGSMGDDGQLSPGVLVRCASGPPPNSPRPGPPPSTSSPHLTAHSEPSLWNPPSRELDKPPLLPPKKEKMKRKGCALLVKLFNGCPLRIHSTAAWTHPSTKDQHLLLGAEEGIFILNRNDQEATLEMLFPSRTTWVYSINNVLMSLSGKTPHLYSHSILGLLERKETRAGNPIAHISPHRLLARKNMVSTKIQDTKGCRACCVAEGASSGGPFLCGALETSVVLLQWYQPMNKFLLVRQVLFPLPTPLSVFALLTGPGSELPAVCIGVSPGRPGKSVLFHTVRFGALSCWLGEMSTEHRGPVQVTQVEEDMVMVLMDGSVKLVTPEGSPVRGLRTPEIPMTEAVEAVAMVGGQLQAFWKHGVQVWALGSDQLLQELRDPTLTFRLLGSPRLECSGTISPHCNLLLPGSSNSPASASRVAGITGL
In general terms: TR-FRET usually uses a lanthanide donor and a delayed reading to cut background.

Molecules are shown by their SMILES. Where a name gives a salt, the structure may show the parent alone. Read-outs that look alike come from different tables or passages of the source. A value given as a limit tells only on which side of the number the result lay.

In the case of `Cc1c(-c2cc3cc(NC(=O)O[C@H]4C[C@@H](CO)C4)ncc3c(N)c2F)cnc2c1NCCO2` [Compound 571b, (1s,3s)-3-(Hydroxymethyl)cyclobutyl (8-amino-7-fluoro-6-(8-methyl-2,3-dihydro-1H-pyrido[2,3-b][1,4]oxazin-7-yl)isoquinolin-3-yl)carbamate], the Ki (read-out: HPK1 Ki) is under 0.013 nM. For the molecule `Cc1c(N)cncc1-c1cc2cc(NC(=O)NC3CCCC3)ncc2c(N)c1F` [Compound 749, 1-(8-Amino-6-(5-amino-4-methylpyridin-3-yl)-7-fluoroisoquinolin-3-yl)-3-cyclopentylurea], under “read-out: HPK1 Ki”, the Ki was determined as 0.102 nM.

As to `Cc1c(-c2cc3cc(NC(=O)O[C@H]4COC[C@H]4C)ncc3c(N)c2F)cnc2c1NCCO2` (single isomer, unassigned) [Compound 441c], for the setting “read-out: HPK1 Ki”, the Ki stood at 0.16 nM. Regarding `CO[C@@H]1COCC[C@@H]1NC(=O)Nc1cc2cc(-c3cnc4c(c3C)NCCO4)c(F)c(N)c2cn1` (single isomer, unassigned) [Compound 750a], the Ki (read-out: HPK1 Ki) was found to be 0.96 nM. The same measure, in the same setting: as for `Cc1c(-c2cc3cc(NC(=O)O[C@@H]4CO[C@H]5OCC[C@H]54)ncc3c(N)c2F)cnc2c1NCCO2` (single isomer, unassigned) [Compound 568b], the figure is 0.018 nM; as for `Cc1c(-c2cc3cc(NC(=O)O[C@H]4CC[C@@H]4C)ncc3c(N)c2F)cnc2c1NCCO2` [Compound 559b, [(1S,2S)-2-methylcyclobutyl]N-[8-amino-7-fluoro-6-(8-methyl-2,3-dihydro-1H-pyrido[2,3-b][1,4]oxazin-7-yl)-3-isoquinolyl]carbamate], 0.14 nM; as for `Cc1c(-c2cc3cc(NC(=O)O[C@@H]4CC[C@@H]4O)ncc3c(N)c2F)cnc2c1NCCO2` [Compound 542b, (1R,2S)-2-Hydroxycyclobutyl (8-amino-7-fluoro-6-(8-methyl-2,3-dihydro-1H-pyrido[2,3-b][1,4]oxazin-7-yl)isoquinolin-3-yl)carbamate], 0.078 nM. For `Cc1c(-c2cc3cc(NC(=O)O[C@@H]4CC[C@H](O)C4)ncc3c(N)c2F)cnc2c1NCCO2` (single isomer, unassigned) [Compound 582b], the Ki (read-out: HPK1 Ki) amounted to 0.02 nM.

Take `CO[C@@H]1CC[C@H](NC(=O)Nc2cc3cc(-c4cnc5c(c4C)NCCO5)c(F)c(N)c3cn2)C1` [Compound 730d, 1-(8-amino-7-fluoro-6-(8-methyl-2,3-dihydro-1H-pyrido[2,3-b][1,4]oxazin-7-yl)isoquinolin-3-yl)-3-((1S,3R)-3-methoxycyclopentyl)urea]: the Ki (HPK1 Ki) is under 0.013 nM. Turning to `Cc1c(-c2cc3cc(NC(=O)N[C@@H]4C[C@@H]4C)ncc3c(N)c2F)cnc2c1NCCO2` (single isomer, unassigned) [Compound 736b], where the note is “read-out: HPK1 Ki”, the Ki was under 0.013 nM. Where the note is “HPK1 Ki”, `Cc1c(-c2cc3cc(NC(=O)O[C@@H]4CO[C@H]5COC[C@H]54)ncc3c(N)c2F)cnc2c1NCCO2` [Compound 563a, (3S,3aR,6aR)-Hexahydrofuro[3,4-b]furan-3-yl (8-amino-7-fluoro-6-(8-methyl-2,3-dihydro-1H-pyrido[2,3-b][1,4]oxazin-7-yl)isoquinolin-3-yl)carbamate] displayed a Ki of 0.219 nM. Take `Cc1c(-c2cc3cc(NC(=O)OC4C5COCC4CN(CC(F)F)C5)ncc3c(N)c2F)cnc2c1NCCO2` (single isomer, unassigned) [Compound 507a]: the Ki (read-out: HPK1 Ki) was under 0.013 nM. Turning to `CNC(=O)[C@H]1C[C@@H](OC(=O)Nc2cc3cc(-c4cnc5c(c4C)NCCO5)c(F)c(N)c3cn2)C1` [Compound 520a, (1s,3s)-3-(Methylcarbamoyl)cyclobutyl (8-amino-7-fluoro-6-(8-methyl-2,3-dihydro-1H-pyrido[2,3-b][1,4]oxazin-7-yl)isoquinolin-3-yl)carbamate hydrochloride], the Ki (read-out: HPK1 Ki) was under 0.013 nM.

As to `Cc1c(-c2cc3cc(NC(=O)O[C@H]4CN(C)C[C@@H]4F)ncc3c(N)c2F)cnc2c1NCCO2` [Compound 452a, (3S,4S)-4-Fluoro-1-methylpyrrolidin-3-yl (8-amino-7-fluoro-6-(8-methyl-2,3-dihydro-1H-pyrido[2,3-b][1,4]oxazin-7-yl)isoquinolin-3-yl)carbamate], the Ki (read-out: HPK1 Ki) stood at 0.03 nM.

With `Cc1c(-c2cc3cc(NC(=O)O[C@H]4C[C@@H](N5CC(F)(F)C5)C4)ncc3c(N)c2F)cnc2c1NCCO2` [Compound 513a, (1s, 3s)-3-(3,3-Difluoroazetidin-1-yl)cyclobutyl (8-amino-7-fluoro-6-(8-methyl-2,3-dihydro-1H-pyrido[2,3-b][1,4]oxazin-7-yl)isoquinolin-3-yl)carbamate], where the note is “read-out: HPK1 Ki”, the Ki amounted to 0.022 nM. For `Cc1c(-c2cc3cc(NC(=O)O[C@H]4C[C@@H]([C@H](C)O)C4)ncc3c(N)c2F)cnc2c1NCCO2` (single isomer, unassigned) [Compound 573a], under “read-out: HPK1 Ki”, the Ki is 0.015 nM. Molecule `CO[C@H]1CC[C@H](NC(=O)Nc2cc3cc(-c4cnc5c(c4C)NCCO5)c(F)c(N)c3cn2)C1` [Compound 730b, 1-(8-amino-7-fluoro-6-(8-methyl-2,3-dihydro-1H-pyrido[2,3-b][1,4]oxazin-7-yl)isoquinolin-3-yl)-3-((1S,3S)-3-methoxycyclopentyl)urea] showed a Ki (HPK1 Ki) of under 0.013 nM. Turning to `Cc1c(-c2cc3cc(NC(=O)O[C@H]4Cc5ncnn5C4)ncc3c(N)c2F)cnc2c1NCCO2` (single isomer, unassigned) [Compound 578b], the Ki (read-out: HPK1 Ki) is 0.15 nM. As to `Cc1c(-c2cc3cc(NC(=O)O[C@H]4CN(C)C(=O)C4(C)C)ncc3c(N)c2F)cnc2c1NCCO2` (single isomer, unassigned) [Compound 480b], the Ki (read-out: HPK1 Ki) came to 0.28 nM.

Turning to `Cc1c(-c2cc3cc(NC(=O)O[C@H]4C[C@@H](C(=O)N(C)C)C4)ncc3c(N)c2F)cnc2c1NCCO2` [Compound 519a, (1s,3s)-3-(Dimethylcarbamoyl)cyclobutyl (8-amino-7-fluoro-6-(8-methyl-2,3-dihydro-1H-pyrido[2,3-b][1,4]oxazin-7-yl)isoquinolin-3-yl)carbamate], where the note is “read-out: HPK1 Ki”, the Ki was under 0.013 nM.

As for `CCN1C[C@@H](OC(=O)Nc2cc3cc(-c4cnc5c(c4C)NCCO5)c(F)c(N)c3cn2)CC1=O` (single isomer, unassigned) [Compound 478b, (5)-1-Ethyl-5-oxopyrrolidin-3-yl (8-amino-7-fluoro-6-(8-methyl-2,3-dihydro-1H-pyrido[2,3-b][1,4]oxazin-7-yl)isoquinolin-3-yl)carbamate], under “read-out: HPK1 Ki”, the Ki was under 0.013 nM. `Cc1c(-c2cc3cc(NC(=O)O[C@@H]4CCN(C5COC5)C[C@H]4F)ncc3c(N)c2F)cnc2c1NCCO2` (relative stereo) [Compound 445ab, (+1-)-trans-3-Fluoro-1-(oxetan-3-yl)piperidin-4-yl (8-amino-7-fluoro-6-(8-methyl-2,3-dihydro-1H-pyrido[2,3-b][1,4]oxazin-7-yl)isoquinolin-3-yl)carbamate]: the Ki (read-out: HPK1 Ki) is under 0.013 nM.

As to `Cc1c(-c2cc3cc(NC(=O)O[C@@H](C)CN(C)C)ncc3c(N)c2F)cnc2c1NCCO2` (single isomer, unassigned) [Compound 523b, (5)-1-(Dimethylamino)propan-2-yl (8-amino-7-fluoro-6-(8-methyl-2,3-dihydro-1H-pyrido[2,3-b][1,4]oxazin-7-yl)isoquinolin-3-yl)carbamate], under “read-out: HPK1 Ki”, the inhibition constant Ki came to 8.75 nM. On the same count and under the same terms, as for `Cc1c(-c2cc3cc(NC(=O)OC4CN(C(=O)[C@@H]5C[C@H]5F)C4)ncc3c(N)c2F)cnc2c1NCCC2` (single isomer, unassigned) [Compound 531b], the figure is 0.152 nM.
